Like-named read-outs stand apart in the source and are kept apart here.
Key:
Format in all cases: in vivo
corn [1] = assay: Example 9, Procedure II: Herbicide No. 1 + pretilachlor (No. 13) with antidotes
Procedure: (§1) Containers were filled and compacted with a fumigated silt loam top soil to a depth of about 1.3 cm from the top of the container. A first container was designated as an untreated control, a second container was designated as a herbicide control, and a third container was designated as a herbicide + antidote test container. Each of the containers was seeded with a crop species. A measured amount of herbicide dispersed or dissolved in acetone was applied to a measured quantity of soil. To this same quantity of soil treated with herbicide, there was added a measured amount of antidote dispersed or dissolved in acetone. The quantity of soil treated with the herbicide and antidote was thoroughly mixed to incorporate the herbicide and antidote in the soil uniformly. The seed bed in the third container of soil was covered with the soil treated with the herbicide and antidote and the container was leveled. For each test series, the seed beds of the first and second containers were likewise covered by soil layers. the cover layer of the first container was not treated with herbicide or antidote.
(§2) The containers were then placed on a bench in a greenhouse and sub-irrigated as required for the duration of the test. […] Plant response is measured in terms of percent injury. Antidote efficacy is indicated as the difference in plant injury by the herbicide(s) without the antidote and with the antidote.
(§3) This procedure is the same as Procedure I, but modified in the manner that after incorporation of the chemicals (herbicide and antidote) the containers with the covered seedbed were treated with an initial overhead irrigation equivalent to 0.6 cm rainfall, then subsequently sub-irrigated as required on greenhouse benches.
In this example the safening effect on a composition comprising Herbicide No. 1 and another leading rice herbicide, i.e., Herbicide No. 13, was investigated using the same antidotes and test procedure described in the preceding example. Herbicide No. 13 is pretilachlor, active ingredient used in the commercial rice herbicides RIFIT®, SOFIT® and SOFIT® SUPER.

corn [2] = assay: Example 19, Procedure II: Herbicide No. 1 + ERADICANE EXTRA with added antidotes
Procedure: as §1, §2, §3
In the test reported in this example, the herbicidal composition was similar to that used in Example 16 in that Herbicide No. 1 was combined with EPTC (Herbicide No. 4) as a co-herbicide and the antidotes included Nos. 1, 2, 7, 13 and 15. However, in this test the EPTC was introduced as a formulation of ERADICANE (EPTC + the antidote R-25788, i.e., Antidote No. 1) at an application rate of 8.96 kg/ha. Thus, in this test two antidotes were present, viz. R-25788 and one of the auxilliary antidotes, No. 2, 13 and 15.
The test reported in this example was performed in the same manner and with the same antidotes used in Example 18, the only difference being the substitution of the commercial herbicidal product ERADICANE® EXTRA for ERADICANE®. ERADICANE EXTRA is a formulation containing both an antidote, i.e., R-29148 (Antidote No. 5 herein), and an extender, dietholate.

corn [3] = assay: Example 21, Procedure II: Herbicide No. 1 + SUTAN PLUS (butylate + antidote) with antidotes
Procedure: as §1, §2, §3
(§4) In this example, tests were conducted as in the preceding Examples 18-20, except here the co-herbicidal component was SUTAN® PLUS, a commercial product comprising as the active herbicidal ingredient the compound butylate (Herbicide No. 10) and an antidote […] (Antidote No. 1). Again, the antidotal compounds herein were Nos. 1, 2, 7, 13 and 15. Procedure II was used.

corn [4] = assay: Example 22: retest of Example 21 at reduced greenhouse temperatures; details: Table 22
Procedure: as §1, §2, §3, §4
(§5) The experiments in this example were designed as a retest of those described in Example 21 in view of the uncharacteristically poor corn safety and weed control, believed to have resulted from unseasonably high temperatures in the greenhouse. Accordingly, temperatures were reduced for these tests.

[5] = system: barnyardgrass (Echinochloa crusgalli); assay: as above; details: Table 22
Procedure: as §1, §2, §3
In the series of greenhouse tests described below, for routine screening purposes the herbicide/antidote compositions were tested in crop/weed combinations involving corn as the crop and either or both of the weeds barnyardgrass (Echinochloa crusgalli), a monocotyledonous weed, and velvetleaf (Abutilon theophrasti), a dicotyledonous weed. In the tables below, these weeds are indicated by the symbols "BYG" and "VL", respectively.
as §4, §5

[6] = system: Giant foxtail (Setaria fabergi); assay: Example 23, Procedure II: Antidote Nos. 15 and 17-21 against Herbicide No. 1, 13 days after application; details: Setaria, 312 h
Procedure: as §1, §2, §3
(§6) In other greenhouse tests, using Procedure II described above, the safening efficacy of Antidote Nos. 15 and 17-21 was evaluated against Herbicide No. 1 in corn in the presence of Giant foxtail (Setaria fabergi) and Velvetleaf (Abutilon theophrasti) as representative annual monocotyledonous and dicotyledonous weeds, respectively.
(§7) Test results are shown in Tables 23A and 23B wherein the indicated plant inhibition represents the average of duplicate replications, with observations being made thirteen (13) days after application of the chemicals. Giant foxtail and Velvetleaf are represented by the symbols "GFT" and "VL", respectively. The data in Table 23A show the test results using the antidotes at 2.24 kg/ha, whereas in Table 23B, the antidotal rate was reduced to 0.56 kg/ha.

corn [7] = assay: as above; details: for inhibition at 140 g/ha / inhibition at 280 g/ha / inhibition at 560 g/ha / inhibition at 1120 g/ha: Zea mays, 312 h, no antidote, 13 days after application; for inhibition at 140 g/ha: Herb. No. 1 0.14 Kg/Ha; for inhibition at 280 g/ha: Herb. No. 1 0.28 Kg/Ha; for inhibition at 560 g/ha: Herb. No. 1 0.56 Kg/Ha; for inhibition at 1120 g/ha: Herb. No. 1 1.12 Kg/Ha
Procedure: as §1, §2, §3, §6, §7

[8] = system: velvetleaf (Abutilon theophrasti); assay: as above; details: Abutilon theophrasti, 312 h
Procedure: as §1, §2, §3, §6, §7

[9] = Herbicide No.1 0.56 kg/ha + ERADICANE EXTRA 8.96 kg/ha, antidote 2.24 kg/ha
[10] = Herbicide No.1 0.56 kg/ha + ERADICANE EXTRA 8.96 kg/ha, antidote 8.96 kg/ha
[11] = Herbicide No.1 1.12 kg/ha + ERADICANE EXTRA 8.96 kg/ha, antidote 2.24 kg/ha
[12] = Herbicide No.1 1.12 kg/ha + ERADICANE EXTRA 8.96 kg/ha, antidote 8.96 kg/ha
[13] = Herbicide No.1 0.56 kg/ha + SUTAN + 8.96 kg/ha, antidote 2.24 kg/ha
[14] = Herbicide No.1 0.56 kg/ha + SUTAN + 8.96 kg/ha, antidote 8.96 kg/ha
[15] = Herbicide No.1 1.12 kg/ha + SUTAN + 8.96 kg/ha, antidote 2.24 kg/ha
[16] = Herbicide No.1 1.12 kg/ha + SUTAN + 8.96 kg/ha, antidote 8.96 kg/ha
[17] = Herbicide No.1 0.56 Kg/ha + SUTAN + 8.96 Kg/ha + antidote 2.24 Kg/ha
[18] = Herbicide No.1 0.56 Kg/ha + SUTAN + 8.96 Kg/ha + antidote 8.96 Kg/ha
[19] = Herbicide No.1 1.12 Kg/ha + SUTAN + 8.96 Kg/ha + antidote 2.24 Kg/ha
[20] = Herbicide No.1 1.12 Kg/ha + SUTAN + 8.96 Kg/ha + antidote 8.96 Kg/ha
[21] = Herbicide No.1 0.56 Kg/ha + SUTAN + 8.96 Kg/ha, no added antidote
[22] = Herbicide No.1 0.56 Kg/ha alone
[23] = Herbicide No.1 1.12 Kg/ha + SUTAN + 8.96 Kg/ha, no added antidote
[24] = Herbicide No.1 1.12 Kg/ha alone
[25] = read-out: % Inhibition Corn, Table 23A
[26] = read-out: % Inhibition Corn, Table 23B

## CC1(C(Cl)Cl)OCCO1 [compound 13]
Corn [1]; Herbicide No.1 0.14 kg/ha + Herbicide No.13 2.24 kg/ha, antidote rate 2.24 kg/ha
  % Injury Corn: 10%
Corn [1]; Herbicide No.1 0.14 kg/ha + Herbicide No.13 2.24 kg/ha, antidote rate 8.96 kg/ha
  % Injury Corn: 0%
Corn [1]; Herbicide No.1 0.56 kg/ha + Herbicide No.13 2.24 kg/ha, antidote rate 2.24 kg/ha
  % Injury Corn: 25%
Corn [1]; Herbicide No.1 0.56 kg/ha + Herbicide No.13 2.24 kg/ha, antidote rate 8.96 kg/ha
  % Injury Corn: 20%
Corn [2]; [9]
  % Injury Corn: 25%
Corn [2]; [10]
  % Injury Corn: 15%
Corn [2]; [11]
  % Injury Corn: 20%
Corn [2]; [12]
  % Injury Corn: 15%
Corn [3]; [13]
  % Injury Corn: 0%
Corn [3]; [14]
  % Injury Corn: 10%
Corn [3]; [15]
  % Injury Corn: 5%
Corn [3]; [16]
  % Injury Corn: 10%
Corn [4]; [17]
  % Injury Corn: 70%
Corn [4]; [18]
  % Injury Corn: 60%
Corn [4]; [19]
  % Injury Corn: 75%
Corn [4]; [20]
  % Injury Corn: 60%
[5]; [17]
  % Injury BYG: 90%
[5]; [18]
  % Injury BYG: 90%
[5]; [19]
  % Injury BYG: 95%
[5]; [20]
  % Injury BYG: 93%

## COC(=O)c1c(Cl)nn(C)c1S(=O)(=O)NC(=O)Nc1nc(OC)cc(OC)n1 [Herbicide No. 1]
Corn [1]; Herbicide No. 1 0.56 kg/ha + Herbicide No. 13 2.24 kg/ha in combination, no antidote
  injury to corn: 65%
Corn [4]; [21]
  % Injury Corn: 55%
Corn [4]; [22]
  % Injury Corn: 60%
Corn [4]; [23]
  % Injury Corn: 60%
Corn [4]; [24]
  % Injury Corn: 65%
[5]; [21]
  % Injury BYG: 93%
[5]; [22]
  % Injury BYG: 55%
[5]; [23]
  % Injury BYG: 93%
[5]; [24]
  % Injury BYG: 70%
[6]; read-out: % Inhibition GFT, Table 23A, Herb. No. 1 0.14 Kg/Ha, no antidote
  inhibition at 140 g/ha: 25%
[6]; read-out: % Inhibition GFT, Table 23A, Herb. No. 1 0.28 Kg/Ha, no antidote
  inhibition at 280 g/ha: 35%
[6]; read-out: % Inhibition GFT, Table 23A, Herb. No. 1 0.56 Kg/Ha, no antidote
  inhibition at 560 g/ha: 60%
[6]; read-out: % Inhibition GFT, Table 23A, Herb. No. 1 1.12 Kg/Ha, no antidote
  inhibition at 1120 g/ha: 80%
[6]; read-out: % Inhibition GFT, Table 23B, Herb. No. 1 0.14 Kg/Ha, no antidote
  inhibition at 140 g/ha: 30%
[6]; read-out: % Inhibition GFT, Table 23B, Herb. No. 1 0.28 Kg/Ha, no antidote
  inhibition at 280 g/ha: 30%
[6]; read-out: % Inhibition GFT, Table 23B, Herb. No. 1 0.56 Kg/Ha, no antidote
  inhibition at 560 g/ha: 60%
[6]; read-out: % Inhibition GFT, Table 23B, Herb. No. 1 1.12 Kg/Ha, no antidote
  inhibition at 1120 g/ha: 70%
Corn [7]; [25]
  inhibition at 140 g/ha: 15%
  inhibition at 280 g/ha: 25%
  inhibition at 560 g/ha: 50%
  inhibition at 1120 g/ha: 65%
Corn [7]; [26]
  inhibition at 140 g/ha: 10%
  inhibition at 280 g/ha: 25%
  inhibition at 560 g/ha: 40%
  inhibition at 1120 g/ha: 60%
[8]; read-out: % Inhibition VL, Table 23A, Herb. No. 1 0.14 Kg/Ha, no antidote
  inhibition at 140 g/ha: 90%
[8]; read-out: % Inhibition VL, Table 23A, Herb. No. 1 0.28 Kg/Ha, no antidote
  inhibition at 280 g/ha: 90%
[8]; read-out: % Inhibition VL, Table 23A, Herb. No. 1 0.56 Kg/Ha, no antidote
  inhibition at 560 g/ha: 95%
[8]; read-out: % Inhibition VL, Table 23A, Herb. No. 1 1.12 Kg/Ha, no antidote
  inhibition at 1120 g/ha: 95%
[8]; read-out: % Inhibition VL, Table 23B, Herb. No. 1 0.14 Kg/Ha, no antidote
  inhibition at 140 g/ha: 85%
[8]; read-out: % Inhibition VL, Table 23B, Herb. No. 1 0.28 Kg/Ha, no antidote
  inhibition at 280 g/ha: 95%
[8]; read-out: % Inhibition VL, Table 23B, Herb. No. 1 0.56 Kg/Ha, no antidote
  inhibition at 560 g/ha: 90%
[8]; read-out: % Inhibition VL, Table 23B, Herb. No. 1 1.12 Kg/Ha, no antidote
  inhibition at 1120 g/ha: 90%

## O=C1OC(=O)c2cccc3cccc1c23 [compound 2]
Corn [2]; [9]
  % Injury Corn: 20%
Corn [2]; [10]
  % Injury Corn: 25%
Corn [2]; [11]
  % Injury Corn: 25%
Corn [2]; [12]
  % Injury Corn: 20%
Corn [3]; [13]
  % Injury Corn: 10%
Corn [3]; [14]
  % Injury Corn: 5%
Corn [3]; [15]
  % Injury Corn: 0%
Corn [3]; [16]
  % Injury Corn: 15%
Corn [4]; [17]
  % Injury Corn: 45%
Corn [4]; [18]
  % Injury Corn: 55%
Corn [4]; [19]
  % Injury Corn: 40%
Corn [4]; [20]
  % Injury Corn: 50%
[5]; [17]
  % Injury BYG: 80%
[5]; [18]
  % Injury BYG: 90%
[5]; [19]
  % Injury BYG: 85%
[5]; [20]
  % Injury BYG: 90%

## CC1(C)OC(c2ccco2)CN1C(=O)C(Cl)Cl (stereo not drawn) [Antidote No. 15, Oxazolidine, 3-(dichloroacetyl)-5-(2-furanyl)-2,2-dimethyl]
Corn [1]; Herbicide Nos. 1 and 13, Table 9
  safening of corn, assessment in words: commercial-level safening of corn
Corn [2]; Herbicide No. 1 + ERADICANE EXTRA + added antidote, highest rates of antidotes and herbicides
  corn injury: 25%
Corn [7]; Herbicide No. 1, Tables 23A and 23B
  safening of corn, assessment in words: greatly safened corn against the herbicide at all test rates
